From PubChem BioAssay AID330 (DTP/NCI, 2004)
Where “and” joins values, the source holds several entries; their conditions need not be identical. Equal entries are not always repeated. Toxic doses and inconclusive results are not listed. The calls were made as follows: active = survival T/C of 150% or more; inactive = T/C below 125% in these data.

Test system: P388 leukemia ip, CD2F1 mice, survival T/C
Assay: NCI In Vivo Anticancer Drug Screen. Data for tumor model P388 Leukemia (intraperitoneal) in CD2F1 (CDF1) mice
Conditions: endpoint: median survival time, higher = longer survival
Summary of the method: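 Mice carrying the transplanted tumor received test compound or vehicle. Survival was recorded in each group, and the value is the treated-group measurement divided by that of the vehicle-treated control group.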

[1] = dose: 50.0 mg/kg/injection, schedule: Q01DX005 (ip), vehicle: saline with Tween-80
[2] = dose: 100.0 mg/kg/injection, schedule: Q01DX005 (ip), vehicle: saline with Tween-80
[3] = dose: 200.0 mg/kg/injection, schedule: Q01DX005 (ip), vehicle: saline with Tween-80
[4] = dose: 50.0 mg/kg/injection, schedule: Q01DX009 (ip), vehicle: Klucel (hydroxypropylcellulose) (HPC)
[5] = dose: 100.0 mg/kg/injection, schedule: Q01DX009 (ip), vehicle: Klucel (hydroxypropylcellulose) (HPC)
[6] = dose: 200.0 mg/kg/injection, schedule: Q01DX009 (ip), vehicle: Klucel (hydroxypropylcellulose) (HPC)
[7] = dose: 60.0 mg/kg/injection, schedule: Q01DX005 (ip), vehicle: saline with Tween-80
[8] = dose: 120.0 mg/kg/injection, schedule: Q01DX005 (ip), vehicle: saline with Tween-80
[9] = dose: 100.0 mg/kg/injection, schedule: Q01DX009 (ip), vehicle: saline with Tween-80
[10] = dose: 100.0 mg/kg/injection, schedule: Q04DX003 (ip), vehicle: Klucel (hydroxypropylcellulose) (HPC)
[11] = dose: 200.0 mg/kg/injection, schedule: Q04DX003 (ip), vehicle: Klucel (hydroxypropylcellulose) (HPC)
[12] = dose: 400.0 mg/kg/injection, schedule: Q04DX003 (ip), vehicle: Klucel (hydroxypropylcellulose) (HPC)
[13] = dose: 12.5 mg/kg/injection, schedule: Q01DX005 (ip), vehicle: saline with Tween-80
[14] = dose: 25.0 mg/kg/injection, schedule: Q01DX005 (ip), vehicle: saline with Tween-80
[15] = dose: 100.0 mg/kg/injection, schedule: Q04DX002 (ip), vehicle: Klucel (hydroxypropylcellulose) (HPC)
[16] = dose: 400.0 mg/kg/injection, schedule: Q04DX002 (ip), vehicle: Klucel (hydroxypropylcellulose) (HPC)

Measured: T/C

CCOC(=O)C1=C(C)NC(C)=C(C(=O)OCC)C1c1cccnc1
inactive: dose: 25.0 mg/kg/injection, schedule: Q01DX009 (ip), vehicle: distilled water + Tween-80 101 % of control | dose: 50.0 mg/kg/injection, schedule: Q01DX009 (ip), vehicle: distilled water + Tween-80 103 % of control | dose: 100.0 mg/kg/injection, schedule: Q01DX009 (ip), vehicle: distilled water + Tween-80 94 % of control | dose: 200.0 mg/kg/injection, schedule: Q01DX009 (ip), vehicle: distilled water + Tween-80 93 % of control | dose: 400.0 mg/kg/injection, schedule: Q01DX009 (ip), vehicle: distilled water + Tween-80 88 % of control

CC(C)=NNC1=NC(CC(C)C)P(=O)(NCCCCCCNP2(=O)SC(NN=C(C)C)=NC2CC(C)C)S1 (stereo not drawn)
inactive: dose: 60.0 mg/kg/injection, schedule: Q01DX005 (ip), vehicle: Klucel (hydroxypropylcellulose) (HPC) 97 % of control | dose: 120.0 mg/kg/injection, schedule: Q01DX005 (ip), vehicle: Klucel (hydroxypropylcellulose) (HPC) 103 % of control | dose: 240.0 mg/kg/injection, schedule: Q01DX005 (ip), vehicle: Klucel (hydroxypropylcellulose) (HPC) 95 % of control

NC(=O)c1ccccc1N1CCCCC1
inactive: [1] 99 % of control | [2] 100 % of control | [3] 91 % of control

CC(=O)Nc1ccc(C(=O)c2ccccc2)cc1
inactive: dose: 25.0 mg/kg/injection, schedule: Q04DX003 (ip), vehicle: saline 102 % of control | dose: 50.0 mg/kg/injection, schedule: Q04DX003 (ip), vehicle: saline 103 % of control | dose: 100.0 mg/kg/injection, schedule: Q04DX003 (ip), vehicle: saline 100 % of control | dose: 200.0 mg/kg/injection, schedule: Q04DX003 (ip), vehicle: saline 103 % of control

CC(C)(C#N)OC(=O)c1cccc(C(=O)OC(C)(C)C#N)c1Sc1ccccc1
inactive: dose: 25.0 mg/kg/injection, schedule: Q01DX001 (ip), vehicle: other 99 % of control | dose: 50.0 mg/kg/injection, schedule: Q01DX001 (ip), vehicle: other 105 % of control | dose: 100.0 mg/kg/injection, schedule: Q01DX001 (ip), vehicle: other 98 % of control and 105 % of control

CS(=O)(=O)Nc1cc(C(O)CNC2CC2)ccc1O (stereo not drawn)
inactive: dose: 0.37 mg/kg/injection, schedule: Q01DX001 (ip), vehicle: saline 96 % of control | dose: 0.75 mg/kg/injection, schedule: Q01DX001 (ip), vehicle: saline 98 % of control | dose: 1.5 mg/kg/injection, schedule: Q01DX001 (ip), vehicle: saline 100 % of control and 95 % of control

CC1CCCCN1C(=S)Nc1ccc(S(=O)(=O)N2CCCCC2)cc1 (stereo not drawn)
inactive: [4] 94 % of control | [5] 101 % of control | [6] 92 % of control

Cc1c(C#N)c2n(c1C)CC(=O)N2
inactive: [7] 87 % of control | [8] 95 % of control

Cc1ccc(NS(=O)(=O)c2ccc([N+](=O)[O-])cc2)cc1
inactive: [9] 100 % of control | dose: 100.0 mg/kg/injection, schedule: Q04DX003 (ip), vehicle: saline with Tween-80 100 % of control | dose: 200.0 mg/kg/injection, schedule: Q04DX003 (ip), vehicle: saline with Tween-80 100 % of control | dose: 400.0 mg/kg/injection, schedule: Q01DX009 (ip), vehicle: saline with Tween-80 90 % of control | dose: 400.0 mg/kg/injection, schedule: Q04DX003 (ip), vehicle: saline with Tween-80 100 % of control

Cc1nc2[nH]cc(-c3ccccc3)c2c(=N)n1-c1ccc(F)cc1
inactive: dose: 6.25 mg/kg/injection, schedule: Q01DX005 (ip), vehicle: Klucel (hydroxypropylcellulose) (HPC) 101 % of control | dose: 12.5 mg/kg/injection, schedule: Q01DX005 (ip), vehicle: Klucel (hydroxypropylcellulose) (HPC) 101 % of control | dose: 25.0 mg/kg/injection, schedule: Q01DX005 (ip), vehicle: Klucel (hydroxypropylcellulose) (HPC) 102 % of control

CC(=O)N1CCc2ccccc2C1C1c2ccccc2CCN1C(C)=O (stereo not drawn)
inactive: [10] 94 % of control | [11] 94 % of control | [12] 92 % of control

CC1CCC2(CC1)CCN(CCCN(C)C)CC2
inactive: dose: 50.0 mg/kg/injection, schedule: Q01DX009 (ip), vehicle: saline 99 % of control | dose: 100.0 mg/kg/injection, schedule: Q01DX009 (ip), vehicle: saline 103 % of control

O=[N+]([O-])c1ccc2c(c1)nc(-c1ccccn1)n2CCc1ccccn1
inactive: [10] 107 % of control | [11] 101 % of control | [12] 107 % of control

Nc1c(C(=O)Nc2ccc3c(c2)C(=O)c2ccccc2C3=O)ccc2c1C(=O)c1ccccc1C2=O
inactive: dose: 50.0 mg/kg/injection, schedule: Q01DX005 (ip), vehicle: Klucel (hydroxypropylcellulose) (HPC) 107 % of control | dose: 100.0 mg/kg/injection, schedule: Q01DX005 (ip), vehicle: Klucel (hydroxypropylcellulose) (HPC) 90 % of control | dose: 200.0 mg/kg/injection, schedule: Q01DX005 (ip), vehicle: Klucel (hydroxypropylcellulose) (HPC) 100 % of control

COc1ccc(S(=O)(=O)NCCSSCCNS(=O)(=O)c2ccc(OC)cc2)cc1
inactive: [4] 91 % of control | [5] 93 % of control | [6] 94 % of control

COc1cccc2c1oc1c3ccc(O)cc3oc(=O)c21
inactive: dose: 6.2 mg/kg/injection, schedule: Q01DX007 (ip), vehicle: carboxymethylcellulose (CMC) 91 % of control

CO[C@H](C(=O)[C@@H](O)[C@@H](C)O)[C@@H]1Cc2cc3cc(O)c(C)c(O)c3c(O)c2C(=O)[C@H]1O
inactive: dose: 8.0 mg/kg/injection, schedule: Q01DX009 (ip), vehicle: water 107 % of control | dose: 16.0 mg/kg/injection, schedule: Q01DX009 (ip), vehicle: water 114 % of control | dose: 32.0 mg/kg/injection, schedule: Q01DX009 (ip), vehicle: water 100 % of control

O=C(Nc1cccc(O)c1)C(Cl)=C(Cl)Cl
inactive: dose: 3.12 mg/kg/injection, schedule: Q01DX005 (ip), vehicle: DMSO 109 % of control | dose: 6.25 mg/kg/injection, schedule: Q01DX005 (ip), vehicle: DMSO 104 % of control | dose: 6.25 mg/kg/injection, schedule: Q01DX005 (ip), vehicle: saline with Tween-80 101 % of control | dose: 12.5 mg/kg/injection, schedule: Q01DX005 (ip), vehicle: DMSO 109 % of control | [13] 115 % of control | dose: 25.0 mg/kg/injection, schedule: Q01DX005 (ip), vehicle: DMSO 108 % of control | [14] 110 % of control | dose: 50.0 mg/kg/injection, schedule: Q01DX005 (ip), vehicle: DMSO 104 % of control

CCC(=O)N/C(N)=N\C(N)=O
inactive: dose: 50.0 mg/kg/injection, schedule: Q01DX005 (ip), vehicle: saline 95 % of control | dose: 100.0 mg/kg/injection, schedule: Q01DX005 (ip), vehicle: saline 98 % of control

Nc1nc(N)c2nc(-c3ccc([N+](=O)[O-])cc3)c(Cl)nc2n1
inactive: dose: 15.0 mg/kg/injection, schedule: Q01DX005 (ip), vehicle: saline with Tween-80 98 % of control | dose: 30.0 mg/kg/injection, schedule: Q01DX005 (ip), vehicle: saline with Tween-80 98 % of control | [7] 95 % of control and 98 % of control | [8] 92 % of control

CCOC(=O)c1nc2c(N)nc(-c3ccccc3)nc2[nH]c1=O
inactive: dose: 50.0 mg/kg/injection, schedule: Q01DX009 (ip), vehicle: saline with Tween-80 94 % of control | [9] 92 % of control | dose: 200.0 mg/kg/injection, schedule: Q01DX009 (ip), vehicle: saline with Tween-80 97 % of control

N#CC(OC(=O)c1cccc(C(=O)OC(C#N)(C(F)(F)F)C(F)(F)F)c1Sc1ccccc1)(C(F)(F)F)C(F)(F)F
inactive: [15] 109 % of control | [16] 115 % of control

CC1CCC(C(C)C)C(NC(=O)c2ccccn2)C1 (stereo not drawn)
inactive: [15] 101 % of control | dose: 200.0 mg/kg/injection, schedule: Q04DX002 (ip), vehicle: Klucel (hydroxypropylcellulose) (HPC) 90 % of control | [16] 97 % of control

Cc1ccc(Sc2ccc3ccccc3n2)cc1
inactive: [1] 90 % of control | [2] 101 % of control | [3] 104 % of control

Cc1ccc2nc(N/N=C/c3cccnc3)sc2c1
inactive: [4] 105 % of control | [5] 100 % of control | [6] 96 % of control

COC(=O)C1(O)C(=O)NC2=C1C(=O)c1ccccc1C2=O (stereo not drawn)
inactive: [13] 99 % of control and 95 % of control | [14] 98 % of control and 110 % of control | [1] 105 % of control
